Assays:
Format in all cases: in vivo, human
[1] = system: children with moderate to severe RDEB; assay: Epidermolysis Bullosa Disease Activity and Scarring Index (EBDASI) in clinical trial
From the text: In order to check whether beneficial effects could be obtained in human beings, a clinical trial has been performed. In the trial a group of about 30 patients has been selected. Patient enrollment: 28 children with molecularly confirmed diagnosis of moderate to severe RDEB, age 2-16 years (age of 25 months), were enrolled at the EB Center Freiburg. A validated scoring instrument for EB that assesses response to therapy separately from chronic damage. It is therefore suitable for interventional trials. […] It includes an activity and damage component for: 1. skin; 2. scalp; 3. mucous membranes; 4. nails; 5. other epithelialized surfaces (incl. larynx, esophagus, genitourinary), hands-pseudosyndactyly and skin cancer. Statistical values for EBDASI are shown in FIG. 2 when determined at the visits in the clinic.

[2] = system: children with moderate to severe RDEB; assay: Birmingham Epidermolysis Bullosa Severity Score (BEBS) in clinical trial; conditions: second interim analysis, baseline (clinic visit 1, day 1) vs clinic visit 5, week 40, FIG. 9
From the text: In order to check whether beneficial effects could be obtained in human beings, a clinical trial has been performed. In the trial a group of about 30 patients has been selected. Patient enrollment: 28 children with molecularly confirmed diagnosis of moderate to severe RDEB, age 2-16 years (age of 25 months), were enrolled at the EB Center Freiburg. […] Eleven items are scored: area of damaged skin, involvement of nails, mouth, eyes, larynx and esophagus, scarring of hands, skin cancer, chronic wounds, alopecia and nutritional compromise. The area of damaged skin is allocated 50 points, and the 10 other items 5 points each, giving a maximum score of 100. […] Therefore, an additional EB-specific scoring instrument was used.

[3] = system: children with moderate to severe RDEB; assay: Itch Assessment Scale for the Pediatric Burn Patients in clinical trial; conditions: values at clinical visits after losartan initiation, FIG. 3
From the text: In order to check whether beneficial effects could be obtained in human beings, a clinical trial has been performed. In the trial a group of about 30 patients has been selected. Patient enrollment: 28 children with molecularly confirmed diagnosis of moderate to severe RDEB, age 2-16 years (age of 25 months), were enrolled at the EB Center Freiburg. The Itch Assessment Scale for the Pediatric Burn Patients, a validated instrument for assessing skin burns, which are similar to RDEB. The scale is based on the Itch Man Scale developed by Blakeney & Marvin (2000), and was used to evaluate the intensity of itch of the trial participants. […] Values taken at clinical visits were determined.

[4] = system: children with moderate to severe RDEB; assay: Wong-Baker FACES Scale for Pain in clinical trial; conditions: first interim analysis, FIG. 6
From the text: In order to check whether beneficial effects could be obtained in human beings, a clinical trial has been performed. In the trial a group of about 30 patients has been selected. Patient enrollment: 28 children with molecularly confirmed diagnosis of moderate to severe RDEB, age 2-16 years (age of 25 months), were enrolled at the EB Center Freiburg. The Wong-Baker FACES Scale for Pain that uses happy or sad faces shown in the score http://wongbakerfaces.org/) is the preferred method of pain reporting by children. This validated tool is widely used to rate pain severity in children with both chronic and acute pain.

[5] = system: children with moderate to severe RDEB; assay: Quality of Life in EB (QOLEB) Questionnaire in clinical trial; conditions: first interim analysis, FIG. 7
From the text: In order to check whether beneficial effects could be obtained in human beings, a clinical trial has been performed. In the trial a group of about 30 patients has been selected. Patient enrollment: 28 children with molecularly confirmed diagnosis of moderate to severe RDEB, age 2-16 years (age of 25 months), were enrolled at the EB Center Freiburg. Although pain and itch scores partly reflect the patients' quality of life, specific scores were used. […] Therefore, children under the age of 10 years included their parents' advice when completing the questionnaires, and children under 8 years of age or unable to read, have the parents completed the questionnaire.

[6] = system: children with moderate to severe RDEB; assay: Children's Dermatology Life Quality Index (CDLQI) in clinical trial
From the text: In order to check whether beneficial effects could be obtained in human beings, a clinical trial has been performed. In the trial a group of about 30 patients has been selected. Patient enrollment: 28 children with molecularly confirmed diagnosis of moderate to severe RDEB, age 2-16 years (age of 25 months), were enrolled at the EB Center Freiburg. The Children's Dermatology Life Quality Index (CDLQI) was used in addition, since it has a version for young children, age of >4, using cartoon images. It consists of 10 questions regarding how the skin disease has affected the patient's quality of life over the past 1 week, in each of 10 domains, with 4 possible responses graded 0-3 (range of scores 0-30).

[7] = system: CRP, IL6, Serum amyloid A and TNFα; assay: Serum biomarkers of inflammation in clinical trial; conditions: over the trial, FIG. 8
Protocol: A blood sample for serum analysis was collected at all clinic visits. The analyses includes TGF levels, and biomarkers of inflammation and fibrosis, such as TNFα, CRP, ferritin, IL6 (FIG. 4) and amyloid. TGFβ and TNFα was analyzed by specific quantitative ELISAs (RayBiotech) at the EB Center Freiburg, while CRP, ferritin, IL6 and amyloid are measured at the central laboratories of the Medical Centers in Freiburg.

[8] = system: children with moderate to severe RDEB; assay: Safety and tolerability in clinical trial (adverse events, blood pressure, heart function)
Protocol: Furthermore, the proPNB(pg/ml) was also measured on each visit to evaluate for signs of heart failure.

[9] = system: children with moderate to severe RDEB; assay: Morphometric scoring of finger contractures (little span) in clinical trial; conditions: second interim analysis, FIG. 12
Protocol: During the ongoing clinical trial described in the preceding examples, an additional novel assessment parameter was added to measure progression of finger contractures: A morphometric scoring instrument that measures the length of the span when spreading fingers as far as possible. In particular, the following parameters were measured: maximal distance of thumb tip and index finger tip (separately for left hand and right hand and the mean value of both hands), also known as 'little span'. In RDEB, disease progression leads to shortening of the span and development of pseudosyndactylies and […] deformities.

[10] = system: RDEB patients; assay: Clinical trial in RDEB patients, overall outcome; conditions: second interim analysis, summary
Protocol: In order to check whether beneficial effects could be obtained in human beings, a clinical trial has been performed. In the trial a group of about 30 patients has been selected. Patient enrollment: 28 children with molecularly confirmed diagnosis of moderate to severe RDEB, age 2-16 years (age of 25 months), were enrolled at the EB Center Freiburg. […] Such parameters were measured in the course of the trial.

[11] = second interim analysis, FIG. 10
[12] = first interim analysis, after 18 patients had completed the study

`CCCCc1nc(Cl)c(CO)n1Cc1ccc(-c2ccccc2-c2nnn[nH]2)cc1` [Losartan, 2-Butyl-4-chloro-1-[[2′-(1H-tetrazol-5-yl)[1,1-biphenyl]-4-yl]methyl]-1H-imidazol-5-methanol] was tested, and the EBDASI score ([1]; during treatment, clinic visit 1 to clinic visit 5, FIG. 2) was “improved substantially”, the EBDASI activity score ([1]; first interim analysis, FIG. 7) was “improved” and the EBDASI damage score ([1]; first interim analysis, FIG. 7) was “improved”. The EBDASI activity score [1, 11] was “showed improvement”, the EBDASI damage score [1, 11] was “showed improvement” and the EBDASI score [1, 11] was “significantly improved”. For the same compound, the “EBDASI total score (sum of activity and damage score)” value [1, 11] was “showed improvement”, the BEBS [2] was “improved” and the Itch score [3] was “a reduction of itch”. For the same compound, the Pain assessment score [4] was “went statistically to a lower level”, the “Quality of life score QoLEB” value [5] was “improvement” and the “Quality of life score CDLQI” value ([6]; first interim analysis, FIG. 7) was “improvement”. For the same compound, the CDLQI score ([6]; second interim analysis, baseline (clinic visit 1, day 1) vs clinic visit 5, week 40, FIG. 11) was “amelioration of the quality of life”, the CRP [7] was “went down” and the IL6 [7] was “went down”. The “Serum amyloid A” value [7] was “went down”, the TNFα [7] was “went down” and the “Ejection fraction (heart's pump function)” value ([8]; first interim analysis) was “no differences”. The “Adverse events related to the Losartan treatment” value [8, 12] was “no adverse events had been observed”, the “Overall safety and tolerability of treatment” value [8, 12] was “safe and well tolerated” and the “proPNB, signs of heart failure” value ([8]; measured on each visit) was “no significant changes”. The “Impact on the blood pressure” value ([8]; normotensive patients, dosage regimen as disclosed) was “without negative impact”, the “Number of adverse events possibly related to trial medication (pruritus, not serious)” value ([8]; second interim analysis) was 1 and the Safety of treatment ([8]; second interim analysis) was “safe”. For the same compound, the “Little span (distance between tip of the thumb and tip of the index finger)” value [9] was “increase”, the Disease progression [10] was “reduced disease progression” and the Disease symptoms [10] was “improved disease symptoms”.

Source: patent publication US12521373B2, “Use of losartan for the treatment of fibrotic diseases, in particular epidermolysis bullosa” (Crowd Pharma Losartan GmbH & Co. KG, priority 2020, dated 2026)
